Tests used:
[1] = molecular target: T1, cyclo-oxygenase (CO) (Homo sapiens, UniProt P23219); assay: In vitro inhibition of cyclo-oxygenase (CO) in homogenised leukocytes, radioimmunoassay for thromboxane B2; type: biochemical; conditions: homogenised leukocytes from blood of normal aspirin-free volunteers; 5µM arachidonic acid, 37°C, 5 minutes; thromboxane B₂ by radioimmunoassay; read-out: IC₅₀(µM) activity CO
T1 construct: The leukocytes were homogenised and 5µM arachidonic acid added; from tissue; host or cells: homogenised leukocytes from blood of volunteers
T1 sequence (P23219 24-599): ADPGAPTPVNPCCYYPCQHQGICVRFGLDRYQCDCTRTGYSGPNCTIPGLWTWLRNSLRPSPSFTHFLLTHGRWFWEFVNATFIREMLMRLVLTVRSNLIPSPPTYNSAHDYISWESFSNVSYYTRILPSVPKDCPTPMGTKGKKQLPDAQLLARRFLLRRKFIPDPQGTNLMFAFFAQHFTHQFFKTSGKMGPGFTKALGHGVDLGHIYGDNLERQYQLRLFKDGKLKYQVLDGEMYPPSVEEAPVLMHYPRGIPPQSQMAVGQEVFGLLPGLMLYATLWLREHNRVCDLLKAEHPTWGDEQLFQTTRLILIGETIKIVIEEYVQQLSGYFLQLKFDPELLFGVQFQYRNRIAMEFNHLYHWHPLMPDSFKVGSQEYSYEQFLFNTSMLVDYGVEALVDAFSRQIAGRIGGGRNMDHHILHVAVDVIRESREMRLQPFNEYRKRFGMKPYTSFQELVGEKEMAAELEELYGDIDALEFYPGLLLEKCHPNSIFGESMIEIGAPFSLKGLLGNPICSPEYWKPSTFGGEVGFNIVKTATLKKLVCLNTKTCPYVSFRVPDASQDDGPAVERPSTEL
Method: (§1) In vitro inhibition of 5-lipoxygenase (5-LO) and cyclo-oxygenase (CO)
(§2) Blood from normal aspirin-free volunteers was centrifuged to separate leukocytes from red cells and platelets. The leukocytes were homogenised and 5µM arachidonic acid added, followed by incubation at 37 °C for 5 minutes. The reaction was stopped by boiling and radioimmunoassays conducted for leucotriene B₄ and thromboxane B₂, products derived from 5-lipoxygenase and cyclo-oxygenase respectively. Results were calculated as IC₅₀(µM) activity against each enzyme.

[2] = molecular target: T2, 5-lipoxygenase (5-LO) (Homo sapiens, UniProt P09917); assay: In vitro inhibition of 5-lipoxygenase (5-LO) in homogenised leukocytes, radioimmunoassay for leucotriene B4; type: biochemical; conditions: homogenised leukocytes from blood of normal aspirin-free volunteers; 5µM arachidonic acid, 37°C, 5 minutes; leucotriene B₄ by radioimmunoassay; read-out: IC₅₀(µM) activity LO
T2 construct: The leukocytes were homogenised and 5µM arachidonic acid added; from tissue; host or cells: homogenised leukocytes from blood of volunteers
T2 sequence (P09917 1-674): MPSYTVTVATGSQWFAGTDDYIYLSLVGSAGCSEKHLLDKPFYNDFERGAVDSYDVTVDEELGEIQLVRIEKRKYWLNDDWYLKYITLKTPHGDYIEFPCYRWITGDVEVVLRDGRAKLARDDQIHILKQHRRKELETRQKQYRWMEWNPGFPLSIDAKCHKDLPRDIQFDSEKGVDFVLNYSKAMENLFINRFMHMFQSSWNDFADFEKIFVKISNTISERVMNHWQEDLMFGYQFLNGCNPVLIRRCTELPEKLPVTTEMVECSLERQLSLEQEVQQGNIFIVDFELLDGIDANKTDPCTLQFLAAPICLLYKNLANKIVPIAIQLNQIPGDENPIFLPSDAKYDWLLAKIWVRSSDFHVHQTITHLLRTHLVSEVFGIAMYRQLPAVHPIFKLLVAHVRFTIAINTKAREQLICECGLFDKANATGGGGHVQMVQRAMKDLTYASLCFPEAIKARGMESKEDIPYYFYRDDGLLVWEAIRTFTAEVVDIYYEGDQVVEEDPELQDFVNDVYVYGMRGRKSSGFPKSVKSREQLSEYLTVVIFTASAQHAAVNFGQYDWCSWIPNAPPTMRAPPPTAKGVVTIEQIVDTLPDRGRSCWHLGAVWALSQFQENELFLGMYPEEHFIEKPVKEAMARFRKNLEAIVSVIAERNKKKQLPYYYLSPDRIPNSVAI
Method: as §1, §2

CC(=O)N(O)[C@@H](C)/C=C/c1cccc(Oc2ccc(F)cc2)c1 [Synthetic Example, (E)-N-{1(S)-methyl-3-[3-(4-fluorophenoxy)phenyl]prop-2-en-1-yl}acetohydroxamic acid]
IC50 [1]: 3 µM
IC50 [2]: 0.15 µM

Reference: patent publication EP0351214A1, “Anti-inflammatory aryl derivatives” (THE WELLCOME FOUNDATION LIMITED, priority 1988, dated 1990)
